Measurements as given in patent US20100152284A1, “PREVENTION AND REVERSAL OF CHEMOTHERAPY-INDUCED PERIPHERAL NEUROPATHY” (NOVOGEN RESEARCH PTY LTD, priority 2006, published 2010).
Where “and” joins values, the source holds several entries; their conditions need not be identical. Identical values can stand only once.

What was measured:
[1] = tested on: differentiated PC12 cells; experiment: Neurite toxicity: percentage of differentiated PC12 cells with neurites after 24 h incubation; conditions: for reduction in the percentage of cells with neurites: strong dose; for inhibition of neurite outgrowth, dose responsiveness: increasing concentrations, 24 hrs, FIG. 1; for reduction in cells with neurites compared to no treatment control: Example 2, p<0.001
Description: PC-12 cells were maintained in Dulbecco's Modified Eagle Media (DMEM; Gibco) with 10% calf serum (Turbo calf serum, Invitrogen), 5% horse serum (JRH Biosciences, Victoria, Australia) and 1% penicillin/streptomycin (Invitrogen) at 37° C., in a 5% CO2 atmosphere. Differentiation into neurons was achieved by seeding cells at a density of 15,000 cells/well in 24-well plates (Falcon Becton Dickinson), on 13 mm glass cover slips (Menzel Glaser, Germany) coated with laminin (Invitrogen) and poly-DL-ornithine (Sigma) in DMEM plus 1% horse serum and 50 ng/mL of nerve growth factor (NGF) (Sigma). The cells were incubated for 72 hours under differentiation conditions, before use in the neurite outgrowth assays below.
Working concentrations were diluted in PC12 cell differentiation medium as above. Treatments consisted of a 24 hour incubation in differentiation media with various concentrations of either agent.
Outgrowing projections were considered neurites if they were greater than a cell body width (10 μm), essentially as previously described. Images of all neurons in thirty randomly selected fields were digitally captured using an Olympus BX60 fluorescence microscope with a UPIanFI 40×/0.75 objective lens and a Zeiss Axiocam HRc digital camera and Zeiss Axiovision 3.1 software. Neurons in all fields were counted per condition and the number of cells with neurites expressed as a percentage of total cells present and error expressed as the standard error of the mean (sem). Each experiment was conducted in triplicate and the results pooled. Statistical significance of data was analysed using ANOVA followed by the Bonferroni post-hoc test.
Neurite toxicity was determined as the percent of cells comprising neurite outgrowths as described in Example 1.

[2] = tested on: differentiated PC12 cells; experiment: βIII-tubulin immunocytochemistry of treated differentiated PC12 cells; assay type: cell-based; conditions: 24 hrs
Excerpt: Further, immunocytochemistry was used to visualise the neurite toxicity effects described above. To do so, following the treatment period, cells were washed with PBS, fixed with 4% paraformaldehyde and permeabilised with ice-cold methanol. Neurons were immunostained for the neuronal marker βIII-tubulin (Promega; Madison, Wisconson, USA) and a Cy3-conjugated anti-mouse antibody (Invitrogen) was used to visualise the staining.

[3] = tested on: differentiated PC12 cells; experiment: Neurite length (longest neurite per neuron) in differentiated PC12 cells; assay type: cell-based
Description: Further to the above described analysis of cells containing neurites, the longest neurite per neuron present in each frame was measured using Image J open source software (NIH, USA).

[4] = patients receiving therapy; cited from earlier work
[5] = tested on: differentiated PC12 cells; experiment: Recovery from cisplatin-induced neurite toxicity (24 h drug, 24 h wash-out, 24 h phenoxodiol); assay type: cell-based; conditions: after 48 hrs of recovery
Description: To determine whether phenoxodiol could have an effect on recovery from cisplatin- or paclitaxel-induced neurite toxicity by exacerbation, reversal, retardation or facilitation of repair, recovery experiments were performed. When conducting the recovery experiments, the concentrations of phenoxodiol tested were decreased by 1 log to 10 nM 100 nM and 1 μM.

PC12 cells = tested on: PC12 cells
Description: A serial dilution was also conducted for phenoxodiol to determine the concentration which would not affect normal growth of the differentiated cells. […] Working concentrations were diluted in PC12 cell differentiation medium as above.

Which results are given for `N.N.[Cl][Pt][Cl]` [cisplatin, Cis-diamine-dichloro-platinum]?
reduction in percentage of cells with neurites ([1]; cisplatin 1 μg/mL (3.33 μM), moderate dose, 24 h, Example 1): 31.9%; reduction in the percentage of cells with neurites ([1]; cisplatin 20 μg/mL (66.65 μM), 24 h, Example 1): 65.8%; neurite toxicity (percent neurites) ([1]; cisplatin alone 1 μg/ml, Example 2, ANOVA, t-test P<0.02): non-significant (n.s.) trend for moderate toxicity; decrease in percent neurites compared to control ([1]; cisplatin alone 20 μg/ml, Example 2, P<0.001): 42%; inhibition of neurite outgrowth, dose responsiveness [1]: dose response in inhibition of neurite outgrowth; percentage of cells bearing neurites compared to control (βIII-tubulin staining) ([2]; cisplatin 20 μg/ml): decreased the percentage of cells bearing neurites; average neurite length of the remaining neurites ([3]; cisplatin alone): no significant effect on the average neurite length; patients experiencing mild neuropathy [4]: around 40%; patients experiencing severe neuropathy [4]: approximately 4%; neurite toxicity compared to the no treatment control ([5]; cisplatin 1 μg/ml): no neurite toxicity; neurite toxicity compared to the no treatment control ([5]; cisplatin 20 μg/ml, p<0.001): greater than 50%

For `CC(=O)O[C@H]1C(=O)[C@@]2(C)[C@H]([C@H](OC(=O)c3ccccc3)[C@]3(O)C[C@H](OC(=O)[C@H](O)[C@@H](NC(=O)c4ccccc4)c4ccccc4)C(C)=C1C3(C)C)[C@]1(OC(C)=O)CO[C@@H]1C[C@@H]2O` [paclitaxel], which “inhibition of neurite outgrowth, dose responsiveness” value [1] is on record?
The value was “dose response in inhibition of neurite outgrowth”.

And the “decrease in the percentage of cells possessing neurites” value ([1]; paclitaxel 0.156 μg/mL (0.18 μM), moderate dose, 24 h, Example 1)?
The value was 33%.

What about the “reduction in the percentage of cells with neurites” value ([1]; paclitaxel 2.5 μg/mL (2.93 μM), 24 h, Example 1) of the same compound?
Its value is 73.6%.

And the “reduction in cells with neurites compared to no treatment control” value ([1]; paclitaxel moderate dose (0.156 μg/ml))?
The value was 58%.

And the “reduction in cells with neurites compared to no treatment control” value ([1]; paclitaxel strong dose (2.4 μg/ml/2.93 μM))?
The value was 72%.

What about the “neurite length compared to the no treatment control” value ([3]; paclitaxel alone, both concentrations used, p<0.001) of the same compound?
Its value is “reduced neurite length”.

And the “cytotoxicity at the chosen concentrations” value (PC12 cells)?
The value was “did not produce cytotoxicity”.

For `Oc1ccc(C2=Cc3ccc(O)cc3OC2)cc1` [phenoxodiol, 2H-1-benzopyran-7-0,1,3-[4-hydroxyphenyl]], which “sensitivity of neurite toxicity to the protective effect relative to cytotoxic and anti-proliferative effects in cancer cell lines” value ([1]; PC12 neuronal cell model vs a variety of cancer cell lines) is on record?
The value was “approximately 10 fold”.

What about the “neurite toxicity in combination, compared to phenoxodiol 10 μM alone” value ([1]; phenoxodiol 10 μM + cisplatin 1 μg/ml (P<0.01) or 20 μg/ml (P<0.001)) of the same compound?
Its value is “increased toxicity”.

What about the “neurite toxicity in combination, compared to phenoxodiol 10 μM alone” value ([1]; phenoxodiol 10 μM + paclitaxel, both concentrations (P<0.001)) of the same compound?
Its value is “increased toxicity”.

And the “effect on percent neurites” value ([1]; phenoxodiol alone 10 μM, 24 h, P<0.001 vs no treatment control)?
Its value is “significant neurite toxicity”.

And the “cell and neurite toxicity in βIII-tubulin stained cells” value ([2]; phenoxodiol 10 μm)?
The value was “Significant cell and neurite toxicity”.

What about the “average neurite length compared to no treatment control” value ([3]; phenoxodiol 10 μM alone, p<0.001) of the same compound?
The value was “significant reductions in average neurite length”.

What about the “average neurite length compared to no treatment control” value ([3]; phenoxodiol 10 μM in combination with Cisplatin and Paclitaxel, p<0.001) of the same compound?
Its value is “significant reductions in average neurite length”.

What about the cytotoxicity (PC12 cells; 10 μM, data not shown) of the same compound?
Its cytotoxicity is “considerable cytotoxicity”.

What about the “effect on cell death or neurite outgrowth” value (PC12 cells; doses up to 1 μM, data not shown) of the same compound?
Its value is “no effect on cell death or neurite outgrowth”.

And the “maximal concentration tested that did not affect survival of PC12 cells” value (PC12 cells; serial dilution)?
The value was 1 μM and 3.2 μg/ml.
